From ChEMBL document CHEMBL5046276 (J Med Chem, 2022) come the findings set out here.

Series [1] deals with Plasmodium falciparum. Put plainly: Antimalarial activity against ART-resistant Plasmodium falcipuram 6218 harbouring C580Y mutant infected in human RBC assessed as reduction in parasitemia in blood smear by measuring parasite survival ratio at ring stage at upto 700 nM incubated for 6 hrs followed by compound washout and replacement with fresh medium without compounds and measured after 66 hrs by ring stage survival assay. The class given is functional. The note with it: dose nM <=700, time 6.0 hrs.

Series [2] deals with Plasmodium falciparum. As to the kind of experiment: In vivo inhibition of C-terminal glmS fused HDAC2 in Plasmodium falcipuram 3D7 assessed as inhibition of parasite growth incubated for 4 hrs followed by compound washout and replacement with fresh medium with compounds measured after 68 hrs by SYBR Green I staining based fluorescence analysis. The class given is functional, organism-based.

In another series the test system is Plasmodium yoelii. Put plainly: Antimalarial activity against blood stage Plasmodium yoelii infected in BALB/c mouse assessed as parasite recrudescence by measuring parasitemia at 60 mg/kg, ip qd for 5 days and measured on 11 to 15 days. The series is classed as functional. The note with it: time 11-15 day.
A further series has as its target Histone deacetylase 3 (Homo sapiens, UniProt O15379). As to the kind of experiment: Inhibition of human C-terminal His tagged HDAC3 (1 to 428 residues) expressed in baculovirus-infected Sf9 cells using Ac-peptide as substrate incubated for 4 hrs.
Series [3] in a line: Metabolic stability in rat liver microsomes assessed as half life at […] incubated for 45 mins in presence of NADPH by LC/MS analysis. The series is classed as ADME, Microsome.
Series [4] concerns the target T1, Protein deacetylase HDAC6 (Homo sapiens) (UniProt Q9UBN7).
T1 sequence (whole entry): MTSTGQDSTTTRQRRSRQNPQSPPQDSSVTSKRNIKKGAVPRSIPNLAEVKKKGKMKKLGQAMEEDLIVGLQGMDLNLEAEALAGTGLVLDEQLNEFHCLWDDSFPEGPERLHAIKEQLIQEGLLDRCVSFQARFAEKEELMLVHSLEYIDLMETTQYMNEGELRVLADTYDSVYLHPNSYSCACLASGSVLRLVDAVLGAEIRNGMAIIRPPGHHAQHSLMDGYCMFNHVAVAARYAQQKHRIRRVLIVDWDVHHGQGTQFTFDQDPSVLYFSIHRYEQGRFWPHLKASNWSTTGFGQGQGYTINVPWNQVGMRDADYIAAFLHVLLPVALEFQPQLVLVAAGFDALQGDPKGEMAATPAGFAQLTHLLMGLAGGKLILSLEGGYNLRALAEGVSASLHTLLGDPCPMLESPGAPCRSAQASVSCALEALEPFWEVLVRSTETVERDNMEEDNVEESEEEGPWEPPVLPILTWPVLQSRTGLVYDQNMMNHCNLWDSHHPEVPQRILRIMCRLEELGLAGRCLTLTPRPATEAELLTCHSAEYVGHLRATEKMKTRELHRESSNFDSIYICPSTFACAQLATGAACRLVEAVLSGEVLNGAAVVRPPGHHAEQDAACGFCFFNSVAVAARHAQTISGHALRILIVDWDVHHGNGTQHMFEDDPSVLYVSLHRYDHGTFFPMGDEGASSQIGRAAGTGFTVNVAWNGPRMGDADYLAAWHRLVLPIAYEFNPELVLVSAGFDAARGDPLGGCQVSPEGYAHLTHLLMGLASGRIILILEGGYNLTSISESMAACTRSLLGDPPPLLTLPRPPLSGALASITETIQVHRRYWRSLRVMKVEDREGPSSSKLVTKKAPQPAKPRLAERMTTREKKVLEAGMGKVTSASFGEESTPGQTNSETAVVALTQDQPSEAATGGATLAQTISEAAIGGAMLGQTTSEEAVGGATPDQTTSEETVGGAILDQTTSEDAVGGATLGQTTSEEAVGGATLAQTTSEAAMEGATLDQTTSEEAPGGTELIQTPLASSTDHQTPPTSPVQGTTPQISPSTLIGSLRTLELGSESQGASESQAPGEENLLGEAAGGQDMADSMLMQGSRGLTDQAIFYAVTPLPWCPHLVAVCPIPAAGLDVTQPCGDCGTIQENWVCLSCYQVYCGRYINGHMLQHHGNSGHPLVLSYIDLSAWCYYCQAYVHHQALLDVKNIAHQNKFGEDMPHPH
As to the kind of experiment: Potency index, ratio of test compound IC50 to Quisinostat IC50 for inhibition of recombinant human full length N-terminal GST tagged HDAC6 (1 to 1215 residues) expressed in baculovirus-infected Sf9 cells using Ac-peptide as substrate incubated for 4 hrs.

The subject of series [5] is Plasmodium falciparum. Put plainly: Antimalarial activity against synchronized Plasmodium falcipuram 3D7 infected in human RBC assessed as fold reduction in reinvasion of ring stage parasites at 40 nM incubated for 12 hrs followed by compound washout and replacement with fresh medium without compounds and measured at 50 hrs post infection by flow cytometry. The series is classed as functional.

Series [6] can be described thus: Metabolic stability in mouse liver microsomes assessed as half life at […] incubated for 45 mins in presence of NADPH by LC/MS analysis. The class given is ADME, Microsome. The note with it: liver microsomes. For orientation: Liver microsomes are a subcellular fraction often used to study metabolism.
A short description of series [7]: Apparent volume of distribution in BALB/c mouse at 5 mg/kg, ip measured after upto 24 hrs by LC-MS/MS analysis. The class given is ADME, organism-based. The note with it: in vivo, read-out: Vz/F.
Series [8] in a line: Selectivity index, ratio of IC50 for cytotoxicity against human HepG2 cells to IC50 for antimalarial activity against asexual blood stage wild-type Plasmodium falciparum 3D7. The class given is toxicity, cell-based. The note with it: read-out: Ratio IC50.
Series [9] is described as follows: Toxicity in BALB/c mouse infected with blood stage Plasmodium yoelii assessed as animal death at 60 mg/kg, ip qd for 5 days measured from day 2 post compound treatment. The class given is organism-based. The note with it: in vivo, 120 h, time 5 day.
Series [10] in a line: Cytotoxicity against HEK293T cells incubated for 72 hrs by CCK-8 assay. The note with it: human. A general note: Formazan colour is commonly taken as a measure of viable cells.
Series [11] in a line: In vivo inhibition of C-terminal TY1 fused HDAC1 in Plasmodium falcipuram 3D7 assessed as inhibition of parasite growth incubated for 4 hrs followed by compound washout and replacement with fresh medium with compounds measured after 68 hrs by SYBR Green I staining based fluorescence analysis. The class given is functional, organism-based, Plasmodium falciparum.
For a further series, the target named is Histone deacetylase 2 (Homo sapiens, UniProt Q92769). As to the kind of experiment: Potency index, ratio of test compound IC50 to Quisinostat IC50 for inhibition of recombinant human full length C-terminal His tagged HDAC2 (1 to 488 residues) expressed in baculovirus-infected Sf9 insect cells using Ac-peptide as substrate incubated for 4 hrs.
Chain of Histone deacetylase 2 (Q92769 whole entry, the tested form may be a part): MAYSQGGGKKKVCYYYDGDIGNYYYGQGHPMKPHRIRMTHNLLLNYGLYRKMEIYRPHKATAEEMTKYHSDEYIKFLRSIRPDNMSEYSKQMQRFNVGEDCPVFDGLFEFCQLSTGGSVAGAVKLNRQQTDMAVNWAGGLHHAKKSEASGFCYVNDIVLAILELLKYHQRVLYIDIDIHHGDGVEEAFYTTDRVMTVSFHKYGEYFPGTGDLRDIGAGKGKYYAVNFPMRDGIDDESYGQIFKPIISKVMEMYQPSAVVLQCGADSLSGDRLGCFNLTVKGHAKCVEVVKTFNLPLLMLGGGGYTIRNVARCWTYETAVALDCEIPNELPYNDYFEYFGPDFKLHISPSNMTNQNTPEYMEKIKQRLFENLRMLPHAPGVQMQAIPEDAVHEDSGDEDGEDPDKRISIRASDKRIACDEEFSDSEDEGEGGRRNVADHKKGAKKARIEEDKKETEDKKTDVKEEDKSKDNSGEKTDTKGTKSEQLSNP
Series [12] in a line: In vivo inhibition of C-terminal glmS fused HDAC1 in Plasmodium falcipuram 3D7 assessed as inhibition of parasite growth incubated for 4 hrs followed by compound washout and replacement with fresh medium with compounds measured after 68 hrs by SYBR Green I staining based fluorescence analysis. The class given is functional, organism-based, Plasmodium falciparum.
The next series has as its system Plasmodium berghei. As to the kind of experiment: Antimalarial activity against liver stage transgenic Plasmodium berghei ANKA sporozoites transfected with GFP-Luc infected in BALB/c mouse assessed as delayed progression of infection at 30 mg/kg, iv measured for 1 to 4 days post-administration by IVIS spectrum in vivo imaging analysis. The class given is functional, organism-based. The note with it: time 1-4 day.

Series [13] has as its system Plasmodium falciparum. As to the kind of experiment: Antimalarial activity against synchronized Plasmodium falcipuram 3D7 infected in human RBC assessed as irreversible inhibition of parasite growth at ring stage at 40 nM treated at 5 to 17 hpi incubated for 12 hrs followed by compound washout and replacement with fresh medium without compounds and measured after 4 days by flow cytometry. The series is classed as functional, organism-based. For orientation: Flow cytometry measures light scatter and fluorescence of single cells or particles in a stream.

The nature of series [14]: Selectivity index, ratio of IC50 for cytotoxicity against HEK293T cells to IC50 for antimalarial activity against asexual blood stage wild-type Plasmodium falciparum 3D7. The series is classed as toxicity, cell-based. The note with it: human, read-out: Ratio IC50.

The source made the active and inactive calls. The calls are words filed in the database; no cut-off is given here. A value given as a limit tells only on which side of the number the result lay.

Chain of Histone deacetylase 3 (O15379 whole entry, the tested form may be a part): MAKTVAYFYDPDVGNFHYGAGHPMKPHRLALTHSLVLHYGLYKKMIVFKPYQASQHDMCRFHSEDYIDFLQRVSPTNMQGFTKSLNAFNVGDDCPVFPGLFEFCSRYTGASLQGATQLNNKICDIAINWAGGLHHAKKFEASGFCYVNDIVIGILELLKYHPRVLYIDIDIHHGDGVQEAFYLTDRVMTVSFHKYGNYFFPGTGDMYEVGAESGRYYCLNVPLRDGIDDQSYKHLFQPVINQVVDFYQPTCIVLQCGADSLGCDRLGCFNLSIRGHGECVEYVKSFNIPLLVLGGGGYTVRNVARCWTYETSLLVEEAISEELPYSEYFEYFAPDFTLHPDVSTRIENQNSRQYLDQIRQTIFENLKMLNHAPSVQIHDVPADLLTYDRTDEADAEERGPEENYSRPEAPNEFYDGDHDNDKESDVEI

As for `Cl.Cn1cc(CN2CC3(CCN(c4ncc(C(=O)NO)cn4)C3)C2)c2ccc(C#N)cc21`, the result with Plasmodium falciparum [1], with Plasmodium berghei and in the series with Plasmodium falciparum [13] was Active. Moreover, the inhibition result with Plasmodium falciparum [2] is “Active”. Besides, the results for the Activity (in the series with Plasmodium yoelii; in [9]) were 0.01% and “Non-Toxic”, respectively. The IC50 – broadly, the concentration that gives 50% inhibition – against Histone deacetylase 3 amounted to 5.2 nM; in [11] it was 82.5 nM; in series [12], 16.8 nM. The values for the half-life in series [3] and in series [6] were more than 2 h and 1.34 h, respectively. For the same compound, the Ratio IC50 (in [4]; at Histone deacetylase 2) was 3 each time. Further, the “fold change (FC)” value in the series on Plasmodium falciparum [5] is given as 10. In addition, the Vd/F in series [7] came to 10.2 L/kg. For the same compound, the selectivity ratio in [8] turned out to be 810; in [14], 960. Further, in [10], the IC50 at 72 h was determined as 1210 nM.
